In ChEMBL document CHEMBL1201862, “PubChem BioAssay data set” (2004):
Calls of active or inactive are those of the source.

Experiments:
[1] = biological target: Cytochrome P450 2C19 (Homo sapiens, UniProt P33261); test: Cytochrome panel assay with activity outcomes. Panel member name: p450-cyp2c19 Compounds with AC50 equal or less than 10 uM are considered active; type: functional
[2] = biological target: Cytochrome P450 2C9 (Homo sapiens, UniProt P11712)
[3] = Shn3 3'UTR reporter inhibitors, dose response, cell-based, Clone20 osteoblasts, firefly luciferase, cherry-picked (AID 624132); type: functional;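 also: firefly luciferase luminescence from reporter carrying the Shn3 3'UTR in osteoblasts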
[4] = Luminescence Cell-Based Dose Response HTS to Identify Activators of Luciferase Translation or Activity in H4 […] Cells. [Related pubchem assays: 1829 (Project Summary), 1814 (Primary HTS)]; type: functional
[5] = test system: H4; test: Luminescence Cell-Based Dose Response HTS to Identify Activators of 5'UTR Stem-Loop Driven Prion Protein mRNA Translation in H4 Neuroglioblastoma Cells. [Related pubchem assays: 1829 (Project Summary), 1814 (Primary HTS)]; type: functional; settings: Homo sapiens
[6] = biological target: T1, Cytochrome P450 1A2 (Homo sapiens, UniProt P05177)
T1 sequence (P05177 whole entry): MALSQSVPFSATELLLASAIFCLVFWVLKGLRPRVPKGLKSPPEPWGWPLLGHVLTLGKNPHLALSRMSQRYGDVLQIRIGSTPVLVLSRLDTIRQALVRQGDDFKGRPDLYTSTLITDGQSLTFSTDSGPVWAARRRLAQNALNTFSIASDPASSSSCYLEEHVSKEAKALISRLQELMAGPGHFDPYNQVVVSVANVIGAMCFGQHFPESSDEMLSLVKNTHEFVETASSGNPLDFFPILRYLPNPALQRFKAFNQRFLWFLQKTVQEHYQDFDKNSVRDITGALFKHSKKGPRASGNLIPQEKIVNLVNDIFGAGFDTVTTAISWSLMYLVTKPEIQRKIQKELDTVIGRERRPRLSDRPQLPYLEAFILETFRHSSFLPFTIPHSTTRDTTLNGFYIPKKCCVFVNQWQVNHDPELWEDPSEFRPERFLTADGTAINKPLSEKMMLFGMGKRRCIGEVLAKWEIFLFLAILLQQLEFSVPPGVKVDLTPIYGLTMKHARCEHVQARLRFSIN

[7] = growth suppression of PTEN-null colon cells, dose response, cell-based, HCT116 PTEN knockout (AID 1047); type: functional;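 also: HCT116 colon tumor cells with PTEN knocked out; cells exposed to compound for 60 hours before readout; potency for loss of cell viability measured by luminescence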
[8] = growth suppression of beta-catenin-knockout colon cells, dose response, cell-based, HCT116, human colon tumor (AID 1045); type: functional;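 also: HCT116 colon tumor cells with beta catenin knocked out; cells exposed to compound for 60 hours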
[9] = biological target: T2, Corticotropin-releasing factor receptor 2/Corticotropin-releasing factor-binding protein (Homo sapiens, UniProt P24387+Q13324); test: activators of CRF receptor 2 with binding protein – uHTS hits, confirmation (AID 602473); type: functional; settings: read-out: EC50_Mean
T2 sequence (Q13324 whole entry): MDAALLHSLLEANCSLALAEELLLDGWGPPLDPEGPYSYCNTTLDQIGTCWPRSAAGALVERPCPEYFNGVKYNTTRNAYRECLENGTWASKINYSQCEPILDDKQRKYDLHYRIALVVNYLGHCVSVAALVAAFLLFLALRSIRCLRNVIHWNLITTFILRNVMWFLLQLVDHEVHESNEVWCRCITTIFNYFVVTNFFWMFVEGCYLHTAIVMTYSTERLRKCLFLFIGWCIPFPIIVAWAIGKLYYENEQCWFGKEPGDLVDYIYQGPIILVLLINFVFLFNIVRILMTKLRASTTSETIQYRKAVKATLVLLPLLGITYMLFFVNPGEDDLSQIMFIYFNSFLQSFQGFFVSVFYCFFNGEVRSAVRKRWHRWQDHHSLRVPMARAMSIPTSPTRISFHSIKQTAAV
T2 sequence (P24387 whole entry): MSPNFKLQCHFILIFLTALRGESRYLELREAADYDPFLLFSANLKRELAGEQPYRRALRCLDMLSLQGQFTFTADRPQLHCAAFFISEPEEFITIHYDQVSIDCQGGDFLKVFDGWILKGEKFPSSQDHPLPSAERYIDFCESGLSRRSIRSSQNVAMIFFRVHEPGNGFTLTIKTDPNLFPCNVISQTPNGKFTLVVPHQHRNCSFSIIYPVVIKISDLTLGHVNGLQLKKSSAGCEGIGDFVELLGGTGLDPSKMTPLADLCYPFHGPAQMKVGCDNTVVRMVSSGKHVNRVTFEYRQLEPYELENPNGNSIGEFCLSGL

[10] = biological target: T3, Rac GTPase-activating protein 1 (Homo sapiens, UniProt Q9H0H5); test: MgcRacGAP GTPase-activating activity inhibitors, confirmation, biochemical, ADP Hunter fluorescence, primary and confirmatory (AID 624330); type: functional
T3 sequence (Q9H0H5 whole entry): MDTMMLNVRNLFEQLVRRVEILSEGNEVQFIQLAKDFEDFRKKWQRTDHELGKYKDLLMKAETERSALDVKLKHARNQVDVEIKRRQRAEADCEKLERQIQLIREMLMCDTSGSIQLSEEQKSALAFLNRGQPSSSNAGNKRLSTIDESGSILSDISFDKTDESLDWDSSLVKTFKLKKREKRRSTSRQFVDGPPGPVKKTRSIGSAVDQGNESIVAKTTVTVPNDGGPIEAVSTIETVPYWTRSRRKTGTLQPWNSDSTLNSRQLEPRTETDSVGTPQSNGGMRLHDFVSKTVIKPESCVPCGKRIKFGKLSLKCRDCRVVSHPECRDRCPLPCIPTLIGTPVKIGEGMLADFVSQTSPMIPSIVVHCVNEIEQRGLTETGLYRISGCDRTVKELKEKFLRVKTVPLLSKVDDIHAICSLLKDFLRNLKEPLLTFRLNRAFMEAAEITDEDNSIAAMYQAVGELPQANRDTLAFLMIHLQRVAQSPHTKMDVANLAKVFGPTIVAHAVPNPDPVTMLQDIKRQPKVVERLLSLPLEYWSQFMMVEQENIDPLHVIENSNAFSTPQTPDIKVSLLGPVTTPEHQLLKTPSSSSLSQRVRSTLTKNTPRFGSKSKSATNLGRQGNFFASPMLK

[11] = test system: Streptococcus sp. 'group A'; test: growth inhibition of control SK(-) GAS strain, dose response, counter-screen for streptokinase expression inhibitor project, luminescence, kanamycin, BacTiterGlo, confirmation (AID 1900); type: functional, organism-based
[12] = test system: Streptococcus; test: Group A Streptococcus viability loss, dose response, counter-screen for streptokinase expression inhibitor project, luminescence, BacTiterGlo (AID 1915); type: functional, organism-based;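 also: potency for reduction of bacterial viability or growth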
[13] = inhibitors of firefly luciferase expression or activity, dose response, H4 neuroglioma cells, luminescence (AID 1990); type: functional, cell-based
[14] = Luminescence Cell-Based Dose Response HTS to Identify Inhibitors of 5'UTR Stem-Loop Driven Prion Protein mRNA Translation in H4 Neuroglioblastoma Cells. [Related pubchem assays: 1827 (Project Summary), 1813 (Primary HTS)]; type: functional
[15] = inhibitors of SNCA 5'UTR-driven reporter translation, confirmation, H4 neuroglioma cells, luminescence (AID 1988); type: functional, cell-based

Chain of Cytochrome P450 2C19 (P33261 whole entry): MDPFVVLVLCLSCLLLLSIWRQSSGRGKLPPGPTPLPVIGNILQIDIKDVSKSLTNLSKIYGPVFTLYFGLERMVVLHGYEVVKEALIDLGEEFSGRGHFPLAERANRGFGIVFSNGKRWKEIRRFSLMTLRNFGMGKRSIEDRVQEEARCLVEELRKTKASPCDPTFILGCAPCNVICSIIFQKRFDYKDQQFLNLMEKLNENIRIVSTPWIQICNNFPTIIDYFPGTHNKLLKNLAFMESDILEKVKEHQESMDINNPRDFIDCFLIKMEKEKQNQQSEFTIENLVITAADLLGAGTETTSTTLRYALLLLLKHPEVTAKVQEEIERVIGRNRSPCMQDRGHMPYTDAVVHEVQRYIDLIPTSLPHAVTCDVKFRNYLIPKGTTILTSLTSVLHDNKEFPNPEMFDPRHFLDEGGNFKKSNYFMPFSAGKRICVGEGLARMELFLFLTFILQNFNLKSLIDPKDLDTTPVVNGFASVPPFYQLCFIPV
Chain of Cytochrome P450 2C9 (P11712 whole entry): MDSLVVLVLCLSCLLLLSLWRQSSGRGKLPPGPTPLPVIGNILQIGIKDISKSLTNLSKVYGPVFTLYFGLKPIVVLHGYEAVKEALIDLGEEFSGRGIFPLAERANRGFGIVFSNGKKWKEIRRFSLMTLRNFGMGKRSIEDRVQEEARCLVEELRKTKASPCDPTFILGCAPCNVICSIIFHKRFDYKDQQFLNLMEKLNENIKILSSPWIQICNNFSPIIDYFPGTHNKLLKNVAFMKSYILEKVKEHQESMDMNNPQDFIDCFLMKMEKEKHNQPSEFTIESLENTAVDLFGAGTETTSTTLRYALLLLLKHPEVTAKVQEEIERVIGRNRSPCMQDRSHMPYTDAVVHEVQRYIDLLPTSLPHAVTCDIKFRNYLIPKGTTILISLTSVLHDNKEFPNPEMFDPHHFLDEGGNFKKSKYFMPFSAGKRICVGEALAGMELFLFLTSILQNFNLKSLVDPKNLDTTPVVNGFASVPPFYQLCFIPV

c1cncc(-c2nc(NCc3cccs3)c3ccccc3n2)c1
AC50 ([1]; read-out: AC50): 5.01 µM (inconclusive)
AC50 [2]: 1 µM (inconclusive)

Cc1ccc(S(=O)(=O)NCCc2cc3ccc(C)cc3nc2O)cc1
AC50 [3]: > 70 µM (inactive)

Cc1cccc(C(=N)NOC(=O)CCCN2C(=O)c3ccccc3C2=O)c1
AC50 [1]: inconclusive
AC50 [2]: 3.98 µM (inconclusive)

Cc1nc2nc(-c3ccc(Cl)cc3)nn2c(C)c1Cl
EC50 [4]: 0.454 µM (active)
EC50 [5]: 5.95 µM (active)
AC50 ([1]; read-out: AC50): 39.8 µM (inconclusive)
AC50 [2]: 20 µM (inconclusive)

COCC(=O)Nc1ccc(-c2cn3cccnc3n2)cc1
AC50 ([1]; read-out: AC50): 3.98 µM (inconclusive)
AC50 [2]: 6.31 µM (inconclusive)

CC(=O)OC[C@@H]1O[C@H](CCO/N=C(\C)CCC(=O)OC[C@@H]2O[C@H](C#Cc3ccccc3)C=C[C@@H]2Oc2ccc(C)cc2)C=C[C@@H]1OC(C)=O
AC50 [2]: 6.31 µM (inconclusive)

Cn1cccc1C(=O)N1CCC2(CC1)CCN(c1ccccn1)CC2
AC50 [6]: 15.8 µM (inconclusive)
AC50 [2]: 31.6 µM (inconclusive)

O=C(Nc1ccccc1)N1CC[C@@]2(CCCN(C(=O)c3ccco3)C2)C1
AC50 [6]: 10 µM (inconclusive)

CCCCn1cnc2c(SC)ncnc21
AC50 [6]: 3.16 µM (inconclusive)

Cc1ccc(Nc2nc(N)nc(CN3CCN(Cc4ccc5c(c4)OCO5)CC3)n2)cc1Cl
EC50 [7]: 18 µM (active)
EC50 [8]: 15.9 µM (active)

CN(C)C(=O)c1ccc(-c2cc(Nc3ccccc3)ncn2)cc1
AC50 [6]: 12.6 µM (inconclusive)

CCC(=O)Nc1cccc(-n2nnnc2SCC(=O)N2CCCCC2)c1
EC50 [9]: 11.7 µM (active)

COc1ccc(CN2CCC(N3CC(C)OC(C)C3)CC2)c(OC)c1OC (stereo not drawn)
IC50 [10]: 66 µM (active)

O[C@@H]1[C@H](O)[C@H]2[C@@H](O)CCN2C[C@@H]1O
AC50 ([1]; read-out: AC50): 39.8 µM (inconclusive)
AC50 [6]: 31.6 µM (inconclusive)
AC50 [2]: 25.1 µM (inconclusive)

O=C(NC(=S)Nc1ccc(Oc2ccc(Cl)cc2)cc1)c1ccccc1
AC50 ([1]; read-out: AC50): 7.08 µM (inconclusive)
AC50 [2]: 2.82 µM (inconclusive)

Cc1ccc(S(=O)(=O)C(C#N)c2nc3ccccc3nc2N2CCCC2)cc1 (stereo not drawn)
EC50 [9]: > 53 µM (inactive)

O=C1[C@H]2C(c3ccccc3)=NN(c3ccccc3)[C@H]2C(=O)N1c1ccccc1
EC50 [11]: 0.614 µM (active)
EC50 [12]: 3.62 µM (active)

COc1ccc(CN2CCN(Cc3ccc(Br)cc3)CC2)c(OC)c1OC
IC50 [10]: 70.2 µM (active)

Cc1nc2cncnc2n(C2CC2)c1=O
AC50 [2]: 7.94 µM (inconclusive)

S=C(NCCN1CCOCC1)Nc1ccc(Nc2ccccc2)cc1
IC50 [10]: 129 µM (active)

CCC(CC)C(=O)NC1CCSC1=O (stereo not drawn)
AC50 [1]: inconclusive
AC50 [6]: 39.8 µM (inconclusive)

OC(COCC1COc2ccccc2O1)CN1CCN(c2ccccc2F)CC1 (stereo not drawn)
AC50 [2]: 20 µM (inconclusive)

Cc1ccc(Cc2cnc(N3C(=N)SC(c4ccccc4)C3=O)s2)cc1 (stereo not drawn)
EC50 [11]: 0.181 µM (active)
EC50 [12]: 5.16 µM (active)

COC(=O)N1N=C(c2ccc(Br)cc2)CC1(O)C(F)(F)F (stereo not drawn)
EC50 [4]: 2.85 µM (active)
EC50 [5]: 0.745 µM (active)

OCCCCNc1cccc2ccccc12
IC50 [10]: 22.8 µM (active)

CCC(=O)Nc1ccc(Nc2ccccc2)cc1
IC50 [10]: 53.6 µM (active)

Nc1nc(NCCOCCO)nc(N2CCCCCC2)c1[N+](=O)[O-]
EC50 [11]: 5.73 µM (active)
EC50 [12]: 8.6 µM (active)

Cc1ncc([N+](=O)[O-])n1CCOC(=O)NC(NCc1ccccc1)C(Cl)(Cl)Cl (stereo not drawn)
AC50 ([1]; read-out: AC50): 14.1 µM (inconclusive)
AC50 [6]: 25.1 µM (inconclusive)
AC50 [2]: 12.6 µM (inconclusive)

CCC1CCCCN1CC(=O)c1c(C)[nH]c2ccccc12 (stereo not drawn)
EC50 [9]: 22.6 µM (active)

C[C@@H]1CCc2cc(F)cc3c(=O)c(C(=O)O)cn1c23
AC50 [6]: 12.6 µM (inconclusive)

Cc1cc(C)c(NC(=O)CSc2nc(COc3ccccc3)nc3ccccc23)c(C)c1
EC50 [13]: > 120 µM (not active)
EC50 [14]: 16.6 µM (active)
EC50 [15]: > 120 µM (not active)

CN1CCN(c2ncc3nc(-c4cccs4)c(=O)n(CCc4ccccc4)c3n2)CC1
AC50 [6]: 2.51 µM (inconclusive)

COCCn1c(=O)c(-c2cn(C)c3ccccc23)nc2cncnc21
AC50 ([1]; read-out: AC50): 25.1 µM (inconclusive)
AC50 [2]: 10 µM (inconclusive)

CCN1C(=O)[C@H]2[C@@H](c3ccc(-c4ccc(F)cc4)c(OC)c3)N[C@@](CC(C)C)(C(=O)OC)[C@H]2C1=O
EC50 [13]: 17.2 µM (active)
EC50 [14]: 26.4 µM (active)
EC50 [15]: 13.9 µM (active)

COC(=O)c1c(-c2ccc3ccccc3c2)csc1NC(=O)Cc1ccc(OC)c(OC)c1
AC50 [6]: 11.2 µM (inconclusive)

Nc1ccc(N2CCCC2)c(S(=O)(=O)Nc2cccc(C(F)(F)F)c2)c1
IC50 [10]: 120 µM (active)

CCOC(=O)Nc1ccc(OC(=O)Oc2ccc(NC(=O)OCC)cc2)cc1
IC50 [10]: 31.8 µM (active)

COc1cc(/C=N/Nc2nc3ccccc3s2)ccc1O
IC50 [10]: 69.6 µM (active)

COc1ccc(CNc2ccc(N3CCN(C(C)=O)CC3)cc2)cc1OC
IC50 [10]: 12 µM (active)

Cc1ccn2c(S)nnc2c1
IC50 [10]: 19.4 µM (active)
